Source: PMC2843552 (Cancer research, 2010)

Tests used:
JAK2 = assay: HTScan JAK2 Kinase Assay; format: biochemical, human; conditions: 5 µM; over a DMSO control; P<0.05
[1] = system: P-STAT3 in MDA-MB-231 breast cancer cells; assay: Western blot of P-STAT3; conditions: 2.5 and 5 µM, 24 hours
[2] = system: P-STAT3 in PANC-1 pancreatic cancer cells; assay: Western blot of P-STAT3; conditions: 2.5 and 5 µM, 24 hours
MDA-MB-231 cells [3] = assay: Soft agar colony formation assay; conditions: MDA-MB-231, soft agar, two weeks
MDA-MB-231 cells [4] = assay: Laminin-based cell invasion assay; conditions: 1 µM, 24 hours
WI-38 lung cells = assay: Apoptosis in normal cells; conditions: normal cell line
BdsMC bladder cells = assay: Apoptosis in normal cells; conditions: normal cell line
HMEC cells = assay: Western blot of cleaved caspase-3 in normal cells; conditions: concentrations as high as 10 µM; normal breast cells
HPDE cells = assay: Western blot of cleaved caspase-3 in normal cells; conditions: concentrations as high as 10 µM; normal pancreatic cells
[5] = system: MDA-MB-231 breast cancer cell line; assay: Combinatorial effect with doxorubicin on cell viability; conditions: 100–400 nM doxorubicin with 5000 nM compound; p < 0.05 over either agent alone
[6] = system: STAT3 transcriptional activity in MDA-MB-231 cells; assay: STAT3-dependent transcriptional luciferase assay; conditions: 24 hours of treatment
[7] = system: STAT3 DNA-binding activity in MDA-MB-231 cells; assay: STAT3 DNA-binding activity in nuclear extracts; conditions: 24 hours treatment
[8] = system: STAT3 DNA-binding activity in PANC-1 cells; assay: STAT3 DNA-binding activity in nuclear extracts; conditions: 24 hours treatment
[9] = system: STAT1 DNA-binding activity in MDA-MB-231 cells; assay: STAT1 DNA-binding activity in nuclear extracts; conditions: 24 hours treatment

| SMILES | reduction in JAK2 kinase activity (JAK2) | levels of P-STAT3 [1] | levels of P-STAT3 [2] | reduction of overall colony numbers over that of curcumin (MDA-MB-231 cells [3]) | invasive capacity (MDA-MB-231 cells [4]) | apoptosis (WI-38 lung cells) | apoptosis (BdsMC bladder cells) | caspase-3 cleavage (HMEC cells) | caspase-3 cleavage (HPDE cells) | combination effect with doxorubicin on cell viability [5] | luciferase activity [6] | STAT3 DNA-binding activity [7] | STAT3 DNA-binding activity [8] | STAT1 DNA-binding activity [9] |
| --- | --- | --- | --- | --- | --- | --- | --- | --- | --- | --- | --- | --- | --- | --- |
| COc1ccc(/C=C/C(=O)C(C)(C)C(=O)/C=C/c2ccc(OC)c(OC)c2)cc1OC [FLLL31] | approximately 60% | effectively reduced | effectively reduced | approximately 40% | substantially reduced | no evidence of apoptosis | no evidence of apoptosis | unable to induce caspase-3 cleavage | unable to induce caspase-3 cleavage | synergistic | reduced luciferase activity in a dose-dependent fashion | dropped sharply | dropped sharply | slightly enhanced |
| COc1cc(/C=C/C(=O)CC(=O)/C=C/c2ccc(O)c(OC)c2)ccc1O [curcumin, reference compound] |  |  |  |  | comparatively minimal impact |  |  |  |  |  |  |  |  |  |
